# Test results published in US7910755B2, “Stem cell expansion and uses” (priority 2004, dated 2011).
# What was measured:
# [1] = test system: lethally-irradiated female B6D2F1 mice; assay: Survival of lethally-irradiated mice (10 Gy total body irradiation, 137Cs); assay type: in vivo; settings: groups of 12
# Method: Exposure of rodents to ionizing radiation exposure. The effect of selected F1Cs on survival of lethally-irradiated female B6D2F1 mice were compared to control animals treated with vehicle alone. The animals were exposed to 10 Gy of total body irradiation at 2.5 Gy/min using a ^137Cs source. […] For Group 4, test article was administered as a 50 μL volume, by intramuscular injection for three consecutive days. The formulation was a suspension containing 0.1% w/v carboxymethyl-cellulose, 0.9% w/v sodium chloride and 0.05% v/v phenol. The formulations were agitated to uniformly resuspend the F1C before syringing, and injected into animals within a few minutes of drawing into the syringe to prevent settling in the syringe.
# The groups of animals were treated as follows.
# [2] = test system: Macaca mulatta (Rhesus monkey) exposed to 6 Gy γ-radiation
# Excerpt: Treatment of whole body lethal radiation and characterization of mortality surrogate markers. Two groups of 10 Macaca mulatta (Rhesus monkey) were exposed to a 6 Gy dose of γ-radiation from a ^60Co source. This dose is an LD50/30 dose for this species. […] The age range was 1.75-5.0 years at the onset of treatment.
# Test article was an aqueous suspension in vehicle. The vehicle article consists of a solution of sodium chloride (0.9% w/v), carboxymethylcellulose (0.5% w/v), polysorbate 80 (2% v/v), benzalkonium chloride (0.02% v/v) and sodium phosphate (10 mM, pH 6.5). Immediately prior to drawing into a syringe, the test article formulation was briefly vortexed to uniformly distribute sedimented test article. Once drawn into a syringe, the test article was administered within 10 minutes. Just prior to injection, the syringe containing the test article was rotated end-over-end to uniformly disperse the compound.
# Whole body radiation. The animals were exposed to ionizing as follows. Dosimetry measurements using phantoms, the dose rate and duration of irradiation and the actual time of irradiation for each individual animal was recorded. Animals were fasted overnight prior to whole-body irradiation and fed upon return to the housing facility. Animals were transferred to the treatment facility in a transport vehicle with controlled environment. During transportation, each animal was individually housed in a stainless steel squeeze back cage. Temperature in the transport vehicle was automatically recorded every 5 minutes during transportation. Clinical signs were monitored immediately before and after transportation.
# The animals received a midline treatment dose of 600 cGy. The dose rate of the ^60Co gamma source was about 60 cGy per minute and the actual rate was recorded for each animal. To obtain a homogenous dose distribution, the radiation treatment was divided in two parts. First, the animal received half of the dose by anteroposterior irradiation. The second half of the dose was delivered by posteroanterior irradiation. Once the treatment was completed, animals were returned to the transport vehicle and transported to the housing facility. The radiation dose was calibrated using an acrylic phantom placed in the same experimental set up that was used for animal irradiation.
# The animals received the vehicle control once daily for five consecutive days by intramuscular injections. The first injection on day 1 was administered at 2-3 hours after irradiation. The dose volume was 0.15 mL/kg for all animals. The dose volume was evenly divided between two distinct sites (approximately 0.075 mL/kg per site). The actual volume delivered was calculated and adjusted based on each animal's body weight.
# During the pre-treatment period cage side observations of clinical signs were performed once daily. A detailed clinical examination was performed on all animals once prior to irradiation on day 1, day 9, weekly thereafter and at day 40 and 41. After radiation, the animals and clinical signs were observed twice a day during the protocol or as often as deemed necessary. Moribund animals were euthanized for humane reasons.
# [3] = test system: female BALB/cByJ mice, DTH response to topical oxazolone challenge; assay: Modulation of delayed type hypersensitivity (oxazolone ear challenge); assay type: in vivo; settings: difference right minus left ear, 24 hours following oxazolone challenge; vehicle alone 0.225 mm
# Method: Modulation of delayed type hypersensitivity. The capacity of F1Cs to modulate delayed type hypersensitivity (DTH) is determined in mice. Groups of five female BALB/cByJ mice (20-25 grams) are anesthetized and 100 μL of a 3% solution of oxazolone is applied on day 0 to the shaved abdomen and dried. Seven days later, on day 7, the mice are challenged by applying 5 μL of oxazolone topically to each side of the right ear. The F1C (at about 20-100 mg/mL) in vehicle is administered by subcutaneous injection (2 mg/day) one time on day 6, 24 hours before the oxazolone challenge. The vehicle as a non-aqueous suspension of the F1C in, e.g., 2% benzyl alcohol w/v, 0.1% Brij 96 w/v and equal volumes of PEG 300 and propylene glycol.
# Dexamethasone in saline (0.2 mg/mL) is administered daily for 9 days (day −1 to 7), first dose 24 hours before sensitization, last dose at challenge by subcutaneous injection (0.01 mg/dose, 50 μl/injection). On Day 8, 24 hours following the oxazolone challenge, both the right and left ear thicknesses are measured using a micrometer caliper and the differences are determined. The differential ear thickness is measured as an indicator of the DTH response to topical oxazolone challenge. The DTH response is expressed as the difference in the thickness (mm) between the right and the left ears for each animal.
# [4] = day 6, 0.6 mg s.c. daily for 3 days
# [5] = day 7, 0.6 mg s.c. daily for 3 days
# [6] = day 12, 0.6 mg s.c. daily for 3 days
# [7] = day 21, 0.6 mg s.c. daily for 3 days
structure (smiles),measurement,setting,value
"C[C@]12CC[C@H]3[C@@H](CC=C4C[C@@H](O)CC[C@@]43C)[C@@H]1CC[C@@H]2O [3β,17β-dihydroxyandrost-5-ene]",number of surviving animals,"[1]; day 6, 0.6 mg i.m. daily for 3 days",12
same,number of surviving animals,[1]; [4],12
same,number of surviving animals,"[1]; day 6, 3.0 mg s.c. daily for 3 days",12
same,number of surviving animals,"[1]; day 7, 0.6 mg i.m. daily for 3 days",12
same,number of surviving animals,[1]; [5],11
same,number of surviving animals,"[1]; day 7, 3.0 mg s.c. daily for 3 days",12
same,number of surviving animals,"[1]; day 12, 0.6 mg i.m. daily for 3 days",11
same,number of surviving animals,[1]; [6],10
same,number of surviving animals,"[1]; day 12, 3.0 mg s.c. daily for 3 days",9
same,number of surviving animals,"[1]; day 21, 0.6 mg i.m. daily for 3 days",9
same,number of surviving animals,[1]; [7],7
same,number of surviving animals,"[1]; day 21, 3.0 mg s.c. daily for 3 days",7
same,number of animals having febrile severe neutropenia (>40.4° C. and absolute neutrophil count less than 500 cells/μL),"[2]; 15 mg/kg i.m. for 5 days, group of 10, at some time during the protocol",2
same,"days of severe thrombocytopenia (less than 20,000 platelets/μL) experienced collectively","[2]; 15 mg/kg i.m. for 5 days, group of 10, vehicle 51 days, p=0.009",32 days
same,median days of febrile severe neutropenia,"[2]; 15 mg/kg i.m. for 5 days, vehicle median 5 days, p=0.037",0 days
same,animals survived,"[2]; 15 mg/kg i.m. once per day for 5 days, 40 days",9 of 10
same,Mortality,"[2]; 15 mg/kg i.m. once per day for 5 days, control group 40%",10%
"C[C@]12CC[C@H]3[C@@H](CC=C4C[C@@H](O)CC[C@@]43C)[C@@H]1CC[C@@H]2N [3β-hydroxy-17,7-aminoandrost-5-ene]",number of surviving animals,[1]; [4],12
same,number of surviving animals,[1]; [5],12
same,number of surviving animals,[1]; [6],12
same,number of surviving animals,[1]; [7],11
O=P1(N(CCCl)CCCl)NCCCO1 (centres unmarked) [cyclophosphamide],differential ear thickness (DTH response),[3],0.092 mm
C[C@@H]1C[C@H]2[C@@H]3CCC4=CC(=O)C=C[C@]4(C)[C@@]3(F)[C@@H](O)C[C@]2(C)[C@@]1(O)C(=O)CO [dexamethasone],differential ear thickness (DTH response),[3],0.144 mm
